Measurements published in article PMC13267291, “In vivo functional profiling and structural characterization of the human GLP1R A316T variant” (Science Advances, 2026).

Experiments:
[1] = system: human GLP-1R A316T versus WT; test: Insulin secretion assay in mouse islets; assay type: cell-based; details: chow-fed mouse islets; 100 nM; 16 hours; n = 4; Fig. 5H
Description: Purified mouse islets used for insulin secretion assays were treated in 24-well nonadherent plates. Eight islets were used per replicate with three technical replicates per condition. For acute studies, islets were preincubated for 1 hour in KRBH buffer containing 0.1% (w/v) bovine serum albumin (BSA) (10775835001, Roche) and 3 mM glucose before incubation with 11 mM glucose ± 100 nM GLP-1RAs or the GLP-1R antagonist exendin-9 in KRBH buffer in a shaking 37°C water bath (80 rpm) for 1 hour. For overnight studies, preincubation was carried out in RPMI 1640 medium containing FBS, P/S, and 3 mM glucose, followed by treatment with medium supplemented with 11 mM glucose ± GLP-1RAs for 16 hours. Supernatants containing secreted insulin were collected, centrifuged at 1000 rpm for 1 min, and transferred to fresh tubes. For total insulin content, islets were lysed using acidic ethanol (75% ethanol, 1.5 mM HCl). Lysates were sonicated 3× 10 s each in a water bath and centrifuged at 10,000g for 10 min, and supernatants were collected. For human islets, the same experiment was performed with islets previously transduced with pAV-SNAP/FLAG-hGLP1R^WT or ^A316T adenoviruses (generated by VectorBuilder) at a multiplicity of infection of 1, 24 hours before the start of experiments. Insulin secretion assays with the human EndoC-βH3 cell line were performed following 3 weeks of treatment with 4-hydroxytamoxifen as above, followed by transduction with pAV-SNAP/FLAG-hGLP1R^WT or ^A316T adenoviruses, with insulin secretion assessed as previously described ([54]), with the following modifications: After preincubation with 0.5 mM glucose KRBH buffer, cells were stimulated with 15 mM glucose ± exendin-4 for 60 min. Total and secreted insulin samples from islets and cells were stored at −20°C until quantification using an Insulin Ultra-Sensitive HTRF kit (#62IN2PEG, Revvity) in a PHERAstar plate reader (BMG Labtech), according to the manufacturer’s instructions.

[2] = system: SNAP/FLAG-hGLP1R^A316T versus ^WT; test: GLP-1R recruitment to detergent-resistant membrane fractions (lipid rafts); assay type: cell-based, human; details: 100 nM, 2 min; fold to vehicle; n = 5; Fig. 8G
Description: signal serially monitored for 30 min. The TR-FRET ratio, i.e. the ratio of fluorescence intensities at 590 and 490 nm, was considered indicative of the proximity of the GLP-1R ECD to the plasma membrane.
Baseline-normalised AUCs were used to generate concentration– response curves fitted using GraphPad Prism 10.1.2, with logEC50 and Emax calculated for each replicate dose response curve.
Real- time c ytosolic c alcium a ssay hGLP1R-/- mouse islets were transduced with pAV- SNAP/FLAG-hGLP1RWT or A316T adenoviruses for 24 hours, labelled with the Ca2+ dye Cal-520, AM (4.5 μM; Stratech) diluted in KBRH buffer containing 6 mM glucose for 1 hour and encased in Matrigel onto […] glass bottom MatTek dishes. […] Raw fluorescence intensity traces from islet ROIs were extracted using Fiji. Responses were plotted relative to the average fluorescence intensity during the 6 mM glucose baseline period, before agonist addition, and AUCs separately calculated for the GLP- 1RA + 6 mM and 11 mM glucose […]
were resuspended in 200 μL ice-cold PBS supplemented with cOmplete EDTA-free protease inhibitor cocktail (Roche) and phosphatase inhibitor cocktail 2 and 1% Triton X-100, followed by rotating incubation for 30 min at 4°C. […] GLP-1R enrichment into DRMs was calculated from SNAP over flotillin band intensity levels under the different conditions […]

Substance	Agonist-mediated increase in glucose-stimulated insulin secretion (fold over 11 mM glucose) following overnight exposure, A316T/A316T versus +/+ islets [1]	Lipid raft segregation/localization in response to agonist, A316T versus WT [2]
exendin-F1	no significantly detrimental effect	
GLP-1(7-36)NH2		no changes
exendin-4	complete loss of the potentiating effect	significantly reduced
